Where a name gives a salt, the structure may show the parent alone.
System: EmGFP-HaloTag
Assay: Test Example 1: HeLa cells stably expressing EmGFP-HaloTag, Western blot GFP/actin (Testing Method A)
Assay type: cell-based
Settings: 1 uM, 24 hours, 1 or less = degradation promoted
Description: Test Example 1: Evaluation Method Using Cell Stably Expressing EmGFP-HaloTag (Testing Method A)
(§1) HeLa cells stably expressing EmGFP-HaloTag were inoculated to Dulbecco's Modified Eagle Medium (DMEM) and cultured for 24 hours. Then, a test compound (specifically, compounds of Examples 1 to 7, 9 to 11, 13 to 15, 17 to 20, 24 to 27, 29, 32 to 33, 36 to 42, 44 to 46 and 56) was added thereto at the final concentration shown in Table 2, followed by incubation for 24 hours under conditions of 37° C./5% CO2. The cells were washed with PBS three times and treated with a cell lysis solution containing a proteolytic enzyme inhibitor to obtain a cell extract. The cell extract was subjected to SDS-PAGE. After the electrophoresis, GFP and actin were detected by Western blot. The ratio of the GFP/actin value of the drug-treated cells to the GFP/actin value of a control group in drug-untreated cells was regarded as an activity value. A value of 1 or less represents that degradation of EmGFP-HaloTag was promoted.

Compound	Activity value (GFP/actin of drug-treated cells relative to drug-untreated control)
Nc1nc2c(nc(-c3cnn(CCOCCOCCOCCOCCOCCCCCCCl)c3)n2Cc2ccc(F)cc2)c(=O)[nH]1 [Example 14, 2-amino-8-(1-(21-chloro-3,6,9,12,15-pentaoxahenicos-1-yl)-1H-pyrazol-4-yl)-9-(4-fluorobenzyl)-1,9-dihydro-6H-purin-6-one]	0.2
CC(=O)N[C@@H](CSc1nc2c(=O)[nH]c(N)nc2n1Cc1cccnc1)C(=O)NCCOCCOCCOCCOCCOCCCCCCCl [Example 41, N^2-acetyl-S-(2-amino-6-oxo-9-(pyridin-3-ylmethyl)-6,9-dihydro-1H-purin-8-yl)-N-(21-chloro-3,6,9,12,15-pentaoxahenicos-1-yl)-L-cysteinamide trifluoroacetic acid salt]	0.5
CC(=O)Nc1nc2c(nc(SC[C@H](NC(C)=O)C(=O)NCCOCCOCCOCCOCCOCCCCCCCl)n2Cc2ccc(F)cc2)c(=O)[nH]1 [Example 27, S-(2-Acetamido-9-(4-fluorobenzyl)-6-oxo-6,9-dihydro-1H-purin-8-yl)-N^2-acetyl-N-(21-chloro-3,6,9,12,15-pentaoxahenicos-1-yl)-L-cysteinamide]	0.7
CC(=O)N[C@@H](CSc1nc2c(=O)[nH]c(N)nc2n1Cc1cccc(Cl)c1)C(=O)NCCOCCOCCOCCOCCOCCCCCCCl [Example 37, N^2-acetyl-S-(2-amino-9-(3-chlorobenzyl)-6-oxo-6,9-dihydro-1H-purin-8-yl)-N-(21-chloro-3,6,9,12,15-pentaoxahenicos-1-yl)-L-cysteinamide]	0.7
Nc1nc2c(nc(C(=O)NCCOCCOCCOCCOCCOCCCCCCCl)n2Cc2ccc(F)cc2)c(=O)[nH]1 [Example 33, 2-Amino-N-(21-chloro-3,6,9,12,15-pentaoxahenicos-1-yl)-9-(4-fluorobenzyl)-6-oxo-6,9-dihydro-1H-purine-8-carboxamide]	0.9
CC(=O)N[C@@H](CSc1nc2c(=O)[nH]c(N)nc2n1Cc1cncs1)C(=O)NCCOCCOCCOCCOCCOCCCCCCCl [Example 42, N^2-acetyl-S-(2-amino-6-oxo-9-(1,3-thiazole-5-ylmethyl)-6,9-dihydro-1H-purin-8-yl)-N-(21-chloro-3,6,9,12,15-pentaoxahenicos-1-yl)-L-cysteinamide]	0.8
CC(=O)N[C@@H](CSc1nc2c(=O)[nH]c(N)nc2n1-c1ccccc1)C(=O)NCCOCCOCCOCCOCCOCCCCCCCl [Example 40, N^2-acetyl-S-(2-amino-6-oxo-9-phenyl-6,9-dihydro-1H-purin-8-yl)-N-(21-chloro-3,6,9,12,15-pentaoxahenicos-1-yl)-L-cysteinamide]	0.7
CC(=O)N[C@@H](CSc1nc2c(=O)[nH]c(N)nc2n1Cc1ccccc1Cl)C(=O)NCCOCCOCCOCCOCCOCCCCCCCl [Example 24, N^2-acetyl-S-(2-amino-9-(2-chlorobenzyl)-6-oxo-6,9-dihydro-1H-purin-8-yl)-N-(21-chloro-3,6,9,12,15-pentaoxahenicos-1-yl)-L-cysteinamide]	0.5
CC(=O)N[C@@H](CSc1nc2c(=O)[nH]cnc2n1Cc1ccc(F)cc1)C(=O)NCCOCCOCCOCCOCCOCCCCCCCl [Example 26, N^2-Acetyl-N-(21-chloro-3,6,9,12,15-pentaoxahenicos-1-yl)-S-(9-(4-fluorobenzyl)-6-oxo-6,9-dihydro-1H-purin-8-yl)-L-cysteinamide]	0.5
CC(=O)N[C@@H](CSc1nc2c(=O)[nH]c(N)nc2n1Cc1ccc(C)cc1)C(=O)NCCOCCOCCOCCOCCOCCCCCCCl [Example 25, N^2-acetyl-S-(2-amino-9-(4-methylbenzyl)-6-oxo-6,9-dihydro-1H-purin-8-yl)-N-(21-chloro-3,6,9,12,15-pentaoxahenicos-1-yl)-L-cysteinamide]	0.9

Same assay, conditions: 10 uM, 24 hours, 1 or less = degradation promoted

Compound	Activity value (GFP/actin of drug-treated cells relative to drug-untreated control)
Nc1nc2c(nc(CCC(=O)NCCOCCOCCOCCOCCOCCCCCCCl)n2Cc2ccc(F)cc2)c(=O)[nH]1 [Example 6, 3-(2-Amino-9-(4-fluorobenzyl)-6-oxo-6,9-dihydro-1H-purin-8-yl)-N-(21-chloro-3,6,9,12,15-pentaoxahenicos-1-yl)propanamide]	0.94
CC(=O)N[C@@H](CSc1c(NCc2ccc(F)cc2)nc(N)[nH]c1=O)C(=O)NCCOCCOCCOCCOCCOCCCCCCCl [Example 19, N^2-Acetyl-S-(2-amino-4-((4-fluorobenzyl)amino)-6-oxo-1,6-dihydropyrimidin-5-yl)-N-(21-chloro-3,6,9,12,15-pentaoxahenicos-1-yl)-L-cysteinamide Trifluoroacetate]	0.5
CC(=O)N[C@@H](CSc1nc2c(=O)[nH]c(N)nc2n1Cc1ccc(Cl)cc1)C(=O)NCCOCCOCCOCCOCCOCCCCCCCl [Example 1, N^2-Acetyl-S-(2-amino-9-(4-chlorobenzyl)-6-oxo-6,9-dihydro-1H-purin-8-yl)-N-(21-chloro-3,6,9,12,15-pentaoxahenicos-1-yl)-L-cysteinamide]	0.7

Same assay, conditions: 100 uM, 24 hours, 1 or less = degradation promoted

Compound	Activity value (GFP/actin of drug-treated cells relative to drug-untreated control)
CC(=O)N[C@@H](CSc1nc2c(=O)[nH]c(N)nc2n1CC1CCOCC1)C(=O)NCCOCCOCCOCCOCCOCCCCCCCl [Example 29, N^2-acetyl-S-(2-amino-6-oxo-9-(tetrahydro-2H-pyran-4-ylmethyl)-6,9-dihydro-1H-purin-8-yl)-N-(21-chloro-3,6,9,12,15-pentaoxahenicos-1-yl)-L-cysteinamide]	0.5

System: EmGFP-HaloTag
Assay: Test Example 2: HeLa cells transiently overexpressing EmGFP-HaloTag, Western blot GFP/actin (Testing Method B)
Assay type: cell-based
Settings: 1 uM, 24 hours, 1 or less = degradation promoted
Description: Test Example 2: Evaluation Using Cell Transiently Overexpressing EmGFP-HaloTag (Testing Method B)
as §1, with “cells” for “cells stably expressing EmGFP-HaloTag”, “hours. Cells overexpressing EmGFP-HaloTag were obtained by transfection with a plasmid pCMV-EmGFP-HaloTag encoding EmGFP-HaloTag. On the next day,” for “hours. Then,”, “Examples 8, 12, 16, 21” for “Examples 1”, “to 23, 28, 30” for “to 7, 9 to 11, 13 to 15, 17 to 20, 24 to 27, 29, 32 to 33, 36 to 42, 44 to 46”, “and 31)” for “and 56)”

Compound	Activity value (GFP/actin of drug-treated cells relative to drug-untreated control)
CC(=O)N[C@@H](CSc1cn(Cc2ccc(F)cc2)c(=O)nc1N)C(=O)NCCOCCOCCOCCOCCOCCCCCCCl [Example 21, N^2-Acetyl-S-(4-amino-1-(4-fluorobenzyl)-2-oxo-1,2-dihydropyrimidin-5-yl)-N-(21-chloro-3,6,9,12,15-pentaoxahenicos-1-yl)-L-cysteinamide Trifluoroacetate]	0.3
CC(=O)N[C@@H](CSc1nc2c(=O)n(C)c(N)nc2n1Cc1ccc(F)cc1)C(=O)NCCOCCOCCOCCOCCOCCCCCCCl [Example 30, N^2-Acetyl-S-(2-amino-9-(4-fluorobenzyl)-1-methyl-6-oxo-6,9-dihydro-1H-purin-8-yl)-N— (21-chloro-3,6,9,12,15-pentaoxahenicos-1-yl)-L-cysteinamide]	0.2
Nc1nc2c(nc(NCCC(=O)NCCOCCOCCOCCOCCOCCCCCCCl)n2Cc2ccc(F)cc2)c(=O)[nH]1 [Example 8, N^3-(2-Amino-9-(4-fluorobenzyl)-6-oxo-6,9-dihydro-1H-purin-8-yl)-N-(21-chloro-3,6,9,12,15-pentaoxahenicos-1-yl)-β-alaninamide]	0.7

Same assay, conditions: 10 uM, 24 hours, 1 or less = degradation promoted

Compound	Activity value (GFP/actin of drug-treated cells relative to drug-untreated control)
CC(=O)N[C@@H](CSc1nc2c(=O)[nH]c(N)nc2n1C1CCCC1)C(=O)NCCOCCOCCOCCOCCOCCCCCCCl [Example 12, N^2-Acetyl-S-(2-amino-9-cyclopentyl-6-oxo-6,9-dihydro-1H-purin-8-yl)-N-(21-chloro-3,6,9,12,15-pentaoxahenicos-1-yl)-L-cysteinamide]	0.45

— patent publication US11986480B2, “Heterocyclic compound” (TOHOKU UNIVERSITY, priority 2017, dated 2024)
